Literature values in patent publication EP0134290A1, “Constant release rate solid dosage theophyllineformulation” (VEREX LABORATORIES, INC., priority 1983, dated 1985).

Conditions: similar dose of regular theophylline; published; spread +- 2.1

Cn1c(=O)c2[nH]cnc2n(C)c1=O [regular theophylline, theophylline]
excretion half life: 9.0 h
